The source of these data is patent US7700109B2, “Biomolecule transduction motif Mph-1-BTM and the use thereof” (ForHumanTech. Co., Ltd., priority 2002, dated 2010).

The subject of one experiment is Jurkat T cells. The experiment in a line: Screening of candidate PTD-β-galactosidase fusion proteins for transduction. Conditions: fusion with β-galactosidase. The class given is cell-based. The source says:
Based on these two hypotheses and requisites, we searched the gene bank. With the factor that the conventional PTDs have lysines and arginines abundantly, we selected about 10,000 primary candidate genes. Among them, 500 genes were chosen by applying the requisites of signal peptide, and 100 genes of the 500 genes were confirmed as to have alanine and valine. Finally, 20 genes were selected by applying the factors required for the transcription factors, and then the transduction efficiencies were tested therefor. In addition, fusion proteins of each of these candidate PTDs and β-galactosidase were expressed and purified, and the functions of these proteins were detected using Jurkat T cells.

Experiment [1] concerns HUVEC, HeLa, 293 and Jurkat cells. The experiment can be described thus: Transduction of fusion protein across cell membrane, β-galactosidase staining on slides. It is filed as cell-based. Conditions: 0.5 μM, 30 min at 37° C., HeLa, 293, Jurkat cells. Here is the method:
HUVEC (ATCC:CRL-1730) (2×10^5), HeLa (ATCC:CCL-2) (2×10^5), and 293 (ATCC:CRL-1573) (2×10^5), which were incubated in 10% FBS (Fetal Bovine Serum) of DMEM, were respectively transferred to Lab-tek II chamber slides. Jurkat cells (ATCC:CRL-10915) (2×10^5) incubated in 10% EBS RPMI were transferred to poly-L-lysin coated slides. Each of the slides was treated with the purified 0.5 μM of Mph-1-β-galactosidase for 30 min at 37° C. in 5% CO2 incubator. And the supernatants were removed from the slides. The incubation mixtures were washed using ice-cold PBS four times and then were solidified with 2% formaldehyde solution for 10 min. After removing the solidified solutions, the mixtures were washed again using ice-cold PBS four times. Subsequently, the respective mixtures were treated with 700 μl of β-galactosidase staining solution (Roche. Colo.) for 45 min at 37° C. in 5% CO2 incubator. Following the staining, the mixtures were washed with ice-cold PBS four times after removing the supernatants. Next, the mixtures were mounted with 70% glycerol on the microscope slides.

As for “Mph-1-BTM: amino acid sequence 858 to 868 of Mph-1, a mouse transcription factor (SEQ ID NO:1) (YARVRRRGPRR; Biomolecule transduction motif)”, the transduction ability result in the experiment on Jurkat T cells was “unexpectedly significant transduction ability”.
Take “β-gal: β-galactosidase reporter protein alone, without transduction peptide”: the “transduction across the cell membranes (β-galactosidase staining)” value in experiment [1] was “not transduced at all”.
